pIC50: −log10 of the molar value.
How the values were obtained:
[1] = biological target: T1, human neutrophil elastase (HNE) (Homo sapiens, UniProt P08246); assay: Specificity assay, neutrophil elastase; type: biochemical; conditions: 2 h enzyme-inhibitor pre-incubation; read-out: HLE activity in the specificity assays (IC50)
T1 construct: purchased Sigma
T1 sequence (P08246 30-267): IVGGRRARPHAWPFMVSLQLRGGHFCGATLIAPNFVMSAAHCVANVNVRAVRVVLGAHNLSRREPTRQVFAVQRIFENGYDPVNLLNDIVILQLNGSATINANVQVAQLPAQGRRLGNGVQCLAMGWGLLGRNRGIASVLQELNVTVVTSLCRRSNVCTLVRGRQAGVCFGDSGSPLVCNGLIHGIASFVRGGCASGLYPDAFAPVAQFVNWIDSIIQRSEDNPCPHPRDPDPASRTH
Procedure: The specificities of compounds of the present disclosure were determined against a variety of serine proteases: human neutrophil elastase (HNE), porcine pancreatic elastase (PPE) and human pancreatic chymotrypsin and one cysteine protease: human liver cathepsin B. In all cases a 96-well plate format protocol using calorimetric p-nitroaniline (pNA) substrate specific for each enzyme was used as described previously (PCT Patent Application No. WO 00/09543) with some modifications to the serine protease assays. All enzymes were purchased from Sigma while the substrates were from Bachem.
Each assay included a 2 h enzyme-inhibitor pre-incubation at room temperature followed by addition of substrate and hydrolysis to 30% conversion as measured on a Spectramax Pro microplate reader. Compound concentrations varied from 100 to 0.4 μM depending on their potency. […]
The percentage of inhibition was calculated using the formula: [1−((UVinh−UVblank)/(UVctl−UVblank))]×100 […]

[2] = biological target: T2, HCV NS3/4A protease complex, H77 strain (Hepatitis C virus genotype 1a, UniProt P27958, C1454S/C1711G); assay: FRET peptide assay to monitor HCV NS3/4A proteolytic activity (H77 strain); type: biochemical, HCV genotype 1a; conditions: read-out: IC50 against NS3/4A H77 strain
T2 construct: DNA encoding the recombinant HCV NS3/4A protease complex (amino acids 1027 to 1711) for these strains; inferred from pET21b vector and Ni-NTA purification; made in house; host or cells: Escherichia coli BL21 (DE3), pET21b
Source text: HCV NS3 protease complexes, derived from the BMS strain, H77 strain or J4L6S strain, were generated, as described below. These purified recombinant proteins were generated for use in a homogeneous assay (see below) to provide an indication of how effective compounds of the present disclosure would be in inhibiting HCV NS3 proteolytic activity.
The H77 and J4L6S strains were used for production of recombinant NS3/4A protease complexes. DNA encoding the recombinant HCV NS3/4A protease complex (amino acids 1027 to 1711) for these strains were manipulated as described by P. Gallinari et al. (see Gallinari P, Paolini C, Brennan D, Nardi C, Steinkuhler C, De Francesco R. Biochemistry. 38(17):5620-32, (1999)). Briefly, a three-lysine solubilizing tail was added at the 3′-end of the NS4A coding region. The cysteine in the P1 position of the NS4A-NS4B cleavage site (amino acid 1711) was changed to a glycine to avoid the proteolytic cleavage of the lysine tag. Furthermore, a cysteine to serine mutation was introduced by PCR at amino acid position 1454 to prevent the autolytic cleavage in the NS3 helicase domain. […]

T2 sequence (P27958 1027-1711 C1454S/C1711G, one chain of several): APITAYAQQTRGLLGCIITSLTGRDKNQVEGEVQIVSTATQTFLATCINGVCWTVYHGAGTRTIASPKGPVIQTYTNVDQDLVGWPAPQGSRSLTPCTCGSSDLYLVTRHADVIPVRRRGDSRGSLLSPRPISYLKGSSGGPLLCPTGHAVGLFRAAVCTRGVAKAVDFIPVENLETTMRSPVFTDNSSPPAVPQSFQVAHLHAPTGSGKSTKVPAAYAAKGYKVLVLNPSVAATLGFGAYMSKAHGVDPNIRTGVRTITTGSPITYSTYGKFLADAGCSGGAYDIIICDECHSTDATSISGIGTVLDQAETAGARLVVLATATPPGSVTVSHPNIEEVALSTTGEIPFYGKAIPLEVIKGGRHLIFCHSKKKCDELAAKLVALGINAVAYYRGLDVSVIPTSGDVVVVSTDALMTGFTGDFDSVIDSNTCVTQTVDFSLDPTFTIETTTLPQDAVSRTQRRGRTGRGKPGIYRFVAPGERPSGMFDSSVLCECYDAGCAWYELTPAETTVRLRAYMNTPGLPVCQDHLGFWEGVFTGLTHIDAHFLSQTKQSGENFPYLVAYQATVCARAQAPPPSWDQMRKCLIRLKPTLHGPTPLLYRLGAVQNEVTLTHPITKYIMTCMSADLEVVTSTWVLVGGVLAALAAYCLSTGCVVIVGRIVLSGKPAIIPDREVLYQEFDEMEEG

Q: Which results are given for `C=C[C@@H]1C[C@]1(NC(=O)[C@@H]1C[C@@](O)(c2ccc(-c3ccccc3)cc2)CN1C(=O)[C@@H](NC(=O)OC(C)(C)C)C(C)(C)C)C(=O)NS(=O)(=O)C1CC1` [Compound 3]?
A: pIC50 [1]: < 4.00; pIC50 [2]: 8.80

Reference: patent US7592336B2, “Hepatitis C virus inhibitors” (Bristol-Myers Squibb Company, priority 2005, dated 2009)
